The test system of assay [1] is M. tuberculosis IAR2 (mmpL3 S288T mutant). The class given is cell-based, Mycobacterium tuberculosis.
Assay [2] deals with R506 (extensively drug resistant strain of M. tuberculosis). The assay is described as follows: microbe, parasite or virus in culture. The class given is cell-based. The note with it: Mycobacterium tuberculosis; read-out: MIC R506 (XDR).
Assay [3] has as its system TF274 (extensively drug resistant strain of M. tuberculosis). Kind of assay: microbe, parasite or virus in culture. The class given is cell-based. Conditions: Mycobacterium tuberculosis; read-out: MIC TF274 (XDR).
Assay [4] concerns V2475 (multi-drug resistant strain of M. tuberculosis). The assay is described as follows: microbe, parasite or virus in culture. Format: cell-based. The note with it: Mycobacterium tuberculosis; read-out: MIC V2475 (MDR).
Assay [5] concerns KZN494 (multi-drug resistant strain of M. tuberculosis). The assay is described as follows: microbe, parasite or virus in culture. Format: cell-based. The note with it: Mycobacterium tuberculosis; read-out: MIC KZN494 (MDR).

Here are results for 11 compounds from patent publication US20170044100A1, “INHIBITORS OF DRUG-RESISTANT MYCOBACTERIUM TUBERCULOSIS” (THE JOHNS HOPKINS UNIVERSITY, priority 2014, published 2017).

In brackets after ≈: the same amount, converted by molar mass. Bounds are passed on as bounds.

As for Capreomycin, in assay [1], the “Fold change in MIC for IAR2” value worked out at 0 and the “MIC for IAR2” value amounted to 1 µg/mL.
Take `CC[C@@H](CO)NCCN[C@@H](CC)CO` [Ethambutol]: in assay [1], the “Fold change in MIC for IAR2” value was found to be 0 and the “MIC for IAR2” value worked out at 1 µg/mL.
For the compound `CO[C@H]1/C=C/O[C@@]2(C)Oc3c(C)c(O)c4c(O)c(c(/C=N/N5CCN(C)CC5)c(O)c4c3C2=O)NC(=O)/C(C)=C\C=C\[C@H](C)[C@H](O)[C@@H](C)[C@@H](O)[C@@H](C)[C@H](OC(C)=O)[C@@H]1C` [Rifampin], in assay [1], the “Fold change in MIC for IAR2” value is reported as 0.25, the “MIC for IAR2” value turned out to be 0.03125 µg/mL and the “MIC for IAR2 compared with H37Rv” value is “lower MIC value”.
Regarding `NNC(=O)c1ccncc1` [Isoniazid, reference compound], in assay [1], the “Fold change in MIC for IAR2” value amounted to 0 and the “MIC for IAR2” value stood at 0.04 µg/mL.
As to `Cc1cc(C)c2cc(C(=O)NC3CCCCCCC3)[nH]c2c1` [Compound 12, N-Cyclooctyl-4,6-dimethyl-1H-indole-2-carboxamide], the MIC in assay [2] was found to be 0.0067 µM (≈ 0.002 µg/mL). In assay [1], the “Fold change in MIC for IAR2” value is reported as 64 and the “MIC for IAR2” value stood at 0.25 µg/mL. Also, the MIC in assay [3] came to 0.026 µM (≈ 0.00776 µg/mL).
On to BM212, for which, in assay [1], the “Fold change in MIC for IAR2” value is reported as 2, the “MIC for IAR2” value is 4 µg/mL and the “MIC upshift for IAR2 versus H37Rv” value was 2 fold.
With `Cc1cc(C)c2cc(C(=O)NC3CCCCC3)[nH]c2c1` [Compound 3, N-Cyclohexyl-4,6-dimethyl-1H-indole-2-carboxamide], the MIC is 0.46 µM (≈ 0.124 µg/mL) in assay [2], 0.46 µM (≈ 0.124 µg/mL) in assay [3], 0.93 to 1.9 µM (≈ 0.251 to 0.514 µg/mL) in assay [4] and 3.7 µM (≈ 1 µg/mL) in assay [5]. In addition, in assay [1], the “Fold change in MIC for IAR2” value is given as “≧(512-1024)”. Also, the “MIC for IAR2” value in assay [1] was “≧128 μg/mL”. For the same compound, the “MIC upshift for IAR2 versus H37Rv” value in assay [1] is recorded as at least 1024 fold.
On to `Cc1cc(C)c2cc(C(=O)NC3CCCCCC3)[nH]c2c1` [Compound 11, N-Cycloheptyl-4,6-dimethyl-1H-indole-2-carboxamide], for which the MIC in assay [2] was found to be 0.055 µM (≈ 0.0156 µg/mL); in assay [3], 0.055 µM (≈ 0.0156 µg/mL); in assay [4] it was 0.11 µM (≈ 0.0313 µg/mL); in assay [5] it was 0.11 µM (≈ 0.0313 µg/mL). In assay [1], the “Fold change in MIC for IAR2” value is 32-64. Further, the “MIC for IAR2” value in assay [1] is 1 µg/mL.
For the compound AU1235, in assay [1], the “MIC for IAR2” value was above 64 µg/mL.
With `CC(C)=CCC/C(C)=C/CNCCNC1C2CC3CC(C2)CC1C3` (stereo not shown) [SQ109], in assay [1], the “Fold change in MIC for IAR2” value amounted to 16 and the “MIC for IAR2” value came to 4 µg/mL.
For `NCC[C@H](O)C(=O)N[C@@H]1C[C@H](N)[C@@H](O[C@H]2O[C@H](CN)[C@@H](O)[C@H](O)[C@H]2O)[C@H](O)[C@H]1O[C@H]1O[C@H](CO)[C@@H](O)[C@H](N)[C@H]1O` [Amikacin], in assay [1], the “Fold change in MIC for IAR2” value came to 0 and the “MIC for IAR2” value amounted to 1 µg/mL.
